Experimental data: patent publication US20030087830A1, “Low molecular weight components of cartilage, complexes of metals with amino acids, DI-peptides and analogs thereof; processes for preparation and therapeutic uses thereof” (priority 2001, published 2003)
Residues, ends and D or L forms follow the SMILES beside them.

Legend:
[1] = test system: blood vessel formation in the vitelline membrane of chick embryo; assay: Embryonic Vascularization Test (EVT); assay type: in vivo; conditions: for EVT activity (in words): in vivo
Procedure: The Embryonic Vascularization Test (EVT) was performed to determine the ability of test samples to inhibit the formation of new blood vessels (antiangiogenic activity).
The normal development of a chick embryo involves the formation of an external vascular system located in the vitelline membrane which carries nutrients from the vitellus (yolk) to the developing embryo. When placed onto the vitelline membrane, antiangiogenic substances can inhibit the blood vessel formation that occurs in the vitelline membrane. Briefly, methylcellulose discs (an inert solid and transparent matrix) containing different test samples were placed on the external border of the vascular perimeter of the vitelline membrane, where the angiogenic process occurs. Vascularization was assessed 24 hours after disc deposition, and results were expressed as the percent of embryos in which blood vessel formation was affected. The blood vessel formation was considered affected when its growing path was either deviated, or diminished or when there was no growth observed beyond the disc as compared to the negative control. The results are expressed as 0, +, and ++ where 0 is for a lower response than 25 percent of the eggs; + is for a response between 25 and 50 percent; and ++ is for an antiangiogenic response observed in more than 50 percent of the eggs.
(§1) According to the endothelial cell proliferation assay, the relative effectiveness of two compounds is compared by reference to the EC50 thereof. The EC50 is the concentration of compound at which the number of endothelial cells is reduced by 50% as compared to control. The efficacy of the test samples in EVT is established by the percent of eggs with altered angiogenesis at a given inhibitor dose of 0.6 mg of copper equivalent (see FIG. 6 for examples). A comparison of the antiangiogenic activity of the compounds of the present invention with divalent metal salts (CuCl2, MgCl2, ZnCl2, CoCl2) and uncoupled alpha-amino acids, alpha-imino acids, dipeptides, and nitrogenated molecules comprising a carboxylic acid group, such as creatine, is provided to illustrate that the formation of the amino acid-copper complex gives rise to complexes having antiangiogenic activity.

[2] = test system: Endothelial cells (HUVEC, BAEC); assay: Endothelial cell proliferation; assay type: cell-based, human / bovine; conditions: for EC50: 48 hours, copper equivalent, NA = less than 50% at 1.25 mM copper equivalent, read-out: EC proliferation (EC50 mM)
Procedure: (§2) Endothelial and tumor cell proliferation assays were performed to determine the ability of test samples to inhibit endothelial cell proliferation (antiangiogenic activity), normal cell proliferation,and tumor cell proliferation.
(§3) Endothelial cells (Human umbilical vein endothelial cells (HUVEC), bovine aortic endothelial cells (BAEC)), skeletal muscle cells, human dermal fibroblasts (all from Clonetics, Walkersville, Md.) were respectively maintained in EBM-2, MDEM, SKGM and FGFM-2 complete media according to manufacturer's instructions. Tumor rat glioblastoma cell line (C6) was maintained in DMEM (Sigma, Oaksville, Ontario) supplemented with 10% fetal calf serum (FCS) and antibiotics in 5% CO2. Briefly, cells seeded in 96-well sterile tissue culture dishes were treated with increasing concentrations of different test samples for a period of 48 hours at 37° C. Cell number was then evaluated by a calorimetric assay using the cell proliferation reagent tetrazolium salt and the fluorimetric assay using DNA dye (Hoescht) according to the procedure established by the manufacturer (Boehringer Mannhein). The conversion of these tetrazolium salts into formazan occurs only in metabolically active cells. The percentage of cell inhibition was determined by comparison to untreated cells.
as §1

human dermal fibroblasts = assay: Fibroblast proliferation; assay type: cell-based; conditions: 48 hours; free amino acids and Glu-Trp 2.5 mM, CuCl2 1.25 mM
Procedure: as §2, §3

Endothelial cells [3] = assay: Endothelial cell migration assay (VEGF, modified Boyden chamber); assay type: cell-based
Procedure: The endothelial cell migration assay was performed to determine the ability of test samples to inhibit the chemotaxic activity of vascular endothelial growth factor (VEGF;R/D System, MN) using a modified Boyden chamber (Transwell™, Corning/Costar). Briefly, polyvinylidene difluoride filters (PVDF) were coated with Pronectin F (Biosources, CA), a constituent of basement membrane barrier. Boyden chambers were assembled by adding VEGF to the culture media in the lower chamber (chemoattractant). Endothelial cells suspended in cultured media in the presence or the absence of the test samples were added to the upper chamber. The chambers were then incubated for a period of 4.5 hours at 37° C. At the end of the incubation period, the cells from both side of the PVDF membrane were fixed with 3.7% formaldehyde. Cells from the upper surface of the membrane were mechanically removed, and the cells remaining on the underside of the membrane were stained with crystal violet (0.5%; Sigma). Cells were then carefully rinsed and the dye fixed to the cells was quantified with a microplate reader ([…]) after its solubilization with a solution of 50% citric acid (0.1M) in water and 50% ethanol.

Endothelial cells [4] = assay: Endothelial cell tubule formation assay (tubulogenesis); assay type: cell-based; design: key to Tubulogenesis: 0: Numerous capillary-like tube forming pentagonal network; +: Decrease of capillary-like tubes; ++: Dramatic decrease of capillary-like tubes; +++: Absence of capillary-like tubes
Procedure: The endothelial cell tubule formation assay is a semi-quantitative assay that was performed to determine the ability of test samples to inhibit this multi-step process, which involves cell adhesion, migration, differentiation and growth, using a commercial kit (Chemicon). Briefly, endothelial cells were seeded on solid gel of Ecmatrix™ (Chemicon), basement proteins prepared from the Engelbreth Holm-Swarm (EHS) mouse tumor in microplate in a E-99 media (Sigma) supplemented with 5% FBS and VEGF (50 ng/ml) in the presence or absence of the test sample. Cells were incubated for a period of 24 hours at 37° C. Pictures were taken on the entire tissue culture dish using a binocular microscope for further evaluation.

[5] = test system: bFGF-stimulated blood vessel formation in Matrigel; assay: Matrigel in vivo angiogenesis assay; design: species or system C57B1/6 mice; conditions: for Matrigel in vivo % inhibition: intra-peritoneal daily 10 days
Procedure: The Matrigel™ in vivo assay was performed to determine the ability of test samples to inhibit blood vessel formation (antiangiogenic activity) and to establish their bioavailability in vivo.
Briefly, liquid Matrigel™ (Becton Dickinson, Bedford, Mass.) was maintained at 4° C. and mixed thoroughly for at least 3 hours with 1,500 ng/ml basic fibroblast growth factor (bFGF) (R&D Systems, Minneapolis, Minn.) used as the primary angiogenic stimulus. The mixture (0.5 ml) was injected subcutaneously into the ventral midline of C57B1/6 mice, and treatment with different test samples or saline solution was initiated the same day. Additional animals were also injected with Matrigel™ containing no bFGF to serve as baseline controls. The animals were treated daily for a 10 day period (intra-peritonealy, 0.2 ml of each dose). At day 11, animals were injected with FITC-dextran 20 min prior to euthanizing treated mice. Matrigel™ gels were removed along with underlying peritoneum and prepared for FITC-dextran detection by fluorimetry. The concentration of FITC-dextran in the gels was calculated from a known concentration of FITC-dextran using a standard curve. The FITC-dextran content of the gels from compound-treated animals and controls was expressed as a percent of the positive bFGF-treated controls after the baseline control of FITC-dextran levels were subtracted from all groups.

[6] = Affinity of the amino acid with copper; assay type: physicochemical
[7] = test system: Lewis lung carcinoma clone M27; assay: Lewis Lung Carcinoma metastatic mouse model (LLC); assay type: in vivo, C57BL/10 female mice; conditions: for Antimetastatic activity (% inhibition) (at 2.5 mg/kg of Cu-complex): intraperitoneal daily for two weeks, lung surface metastases
Text: The Lewis Lung Carcinoma mouse model (LLC) was used to determine the ability of different test samples to inhibit the formation of metastases within the lung. The Lewis lung carcinoma clone M27, with a high metastatic potential to the lung, was established by Dr P. Brodt (Brodt P, Characterization of two highly metastatic variants of Lewis lung carcinoma with different organ specificities. Cancer Res., 46: 2442, 1986). This model is well established and is known for its predictive correlation between in vitro and in vivo activity. Briefly, LLC cells were transplanted subcutaneously in the axillary region of the right flank of C57BL/10 female mice (Charles River Inc.) When the primary tumor reached a size of 0.5-1.0 cm^3 (day 10 post-inoculation), the tumor was carefully separated from the surrounding healthy tissues. Treatment with different test samples started the day following tumor removal (day 11 post-inoculation). Saline or different test samples were administered daily for two weeks by intraperitoneal injection (0.2 ml of each dose). As previous experiments had shown that a period of approximately two weeks after removal of the primary tumor was sufficient to obtain an average of 30 to 50 nodules on the lung surface, animals were sacrificed in a CO2 chamber two weeks later. Following autopsy, both lungs were removed, weighed and fixed in 10% Bouin's fixative. Lung surface metastases were counted using a stereomicroscope (4×).

[8] = test system: Striated muscle cells (skeletal muscle cells); assay: Striated muscle cell proliferation; assay type: cell-based; conditions: 48 hours; free amino acids and Glu-Trp 2.5 mM, CuCl2 1.25 mM
Procedure: as §2, §3

[9] = activity at 0.6 mg equivalent Copper
[10] = copper complexes, concentration not given, VEGF, 4.5 hours
[11] = copper complexes, concentration not given, VEGF 50 ng/ml, 24 hours

Compound | EVT (% of inhibition) [1, 9] | EC50 [2] [mM] | EC50 (human dermal fibroblasts) [mM] | Cell migration activity (in words) (Endothelial cells [3]) | Cell Migration (% inhibition) (Endothelial cells [3]; [10]) [%] | Tubulogenesis activity (in words) (Endothelial cells [4]) | Tubulogenesis (Endothelial cells [4]; [11]) | Matrigel in vivo % inhibition ([5]; 7.0 mg/Kg equivalent copper) [%] | Affinity of the AA with Cooper [6] | EVT activity (in words) [1] | Endothelial cell proliferation activity (in words) [2] | Antimetastatic activity (% inhibition) (at 2.5 mg/kg of Cu-complex) [7] [%] | other results
C[C@@H](O)[C@H](N)C(=O)[O-].C[C@@H](O)[C@H](N)C(=O)[O-].[Cu+2] [Compound 5, L-Thr:Cu:L-Thr] | ++ (++ more than 50% of inhibition) | 0.3 | 1.34 | important activity | 90 | important activity | ++ | 59.4 | 15.4 | – | – | – | Matrigel in vivo % inhibition ([5]; 1.4 mg/Kg equivalent copper): 47.7%
N[C@@H](Cc1c[nH]cn1)C(=O)[O-].N[C@@H](Cc1c[nH]cn1)C(=O)[O-].[Cu+2] [Compound 10, L-His:Cu:L-His] | 0 (0 non-active (less than 25% of inhibition)) | 0.9 | – | did not show any activity | 65 | did not show any activity | 0 | 63.4 | 19.4 | inactive | inactive | 63.0 | Matrigel in vivo antiangiogenic activity (in words) ([5]; mouse, in vivo): more active than compound 6
[Cl][Cu][Cl] [CuCl2, copper chloride, reference compound] | – | – | – | did not show any activity | – | did not show any activity | – | 24.2 | – | – | – | – | Cell Migration (% inhibition) (Endothelial cells [3]; 1.25 mM): 6%; Tubulogenesis (Endothelial cells [4]; 1.25 mM): 0
N[C@@H](CCC(=O)O)C(=O)N[C@@H](Cc1c[nH]c2ccccc12)C(=O)O [Free Glu-Trp, glutamyl-tryptophane, reference compound] (H-Glu-Trp-OH) | 0 (0 non-active (less than 25% of inhibition)) | – | – | did not show any activity | – | did not show any activity | – | – | – | almost inactive | almost inactive | 22.8 | inhibition at 2500 µM (Endothelial cells [3]; Endothelial cell, 2.5 mM free (not complexed) ligand): 10%; Tubulogenesis (Endothelial cells [4]; 2.5 mM free (not complexed) ligand): 0
(Glu—Trp)2-Cu [Compound 33] | ++ (++ more than 50% of inhibition) | 0.23 | 0.66 | important activity | 96 | important activity | +++ | – | – | – | – | 44 | EVT (% of inhibition) ([1]; 0.6 mg copper equivalent, percent of embryos with affected blood vessel formation, 24 hours after disc deposition): 60%; EC50 [8]: 0.47 mM; Anti-metastatic activity in vivo (in words) ([7]; mouse, in vivo): more active than the free di-peptide
